According to PubChem BioAssay (NCI):
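Cultured in 96-well plates, cells were exposed to test compound for 48 hours across five concentrations. TGI is the concentration that stops growth completely.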

What was measured:
Assay in all cases: NCI-60 cell line screen, 48 h
KM12 colon = tested on: KM12 colon
NCI-H226 lung = tested on: NCI-H226 lung
CAKI-1 renal = tested on: CAKI-1 renal
IGROV1 ovarian = tested on: IGROV1 ovarian
HOP-92 NSCLC = tested on: HOP-92 NSCLC
HOP-62 NSCLC = tested on: HOP-62 NSCLC
SK-MEL-28 melanoma = tested on: SK-MEL-28 melanoma
SK-OV-3 ovarian = tested on: SK-OV-3 ovarian
SF-268 CNS = tested on: SF-268 CNS
MDA-MB-231 breast = tested on: MDA-MB-231 breast
BT-549 breast = tested on: BT-549 breast
ACHN renal = tested on: ACHN renal
UACC-257 melanoma = tested on: UACC-257 melanoma
786-0 renal = tested on: 786-0 renal
UO-31 renal = tested on: UO-31 renal
A498 renal = tested on: A498 renal
OVCAR-4 ovarian = tested on: OVCAR-4 ovarian
MCF7 breast = tested on: MCF7 breast
MALME-3M melanoma = tested on: MALME-3M melanoma
NCI/ADR-RES ovarian = tested on: NCI/ADR-RES ovarian
RPMI-8226 leukemia = tested on: RPMI-8226 leukemia
SK-MEL-2 melanoma = tested on: SK-MEL-2 melanoma
DU-145 prostate = tested on: DU-145 prostate
LOX IMVI melanoma = tested on: LOX IMVI melanoma
SF-295 CNS = tested on: SF-295 CNS
SF-539 CNS = tested on: SF-539 CNS
SNB-75 CNS = tested on: SNB-75 CNS
NCI-H522 lung = tested on: NCI-H522 lung
SN12C renal = tested on: SN12C renal
SK-MEL-5 melanoma = tested on: SK-MEL-5 melanoma
NCI-H460 lung = tested on: NCI-H460 lung
MOLT-4 leukemia = tested on: MOLT-4 leukemia
COLO 205 colon = tested on: COLO 205 colon
PC-3 prostate = tested on: PC-3 prostate
MDA-N = tested on: MDA-N
A549 NSCLC = tested on: A549 NSCLC
OVCAR-5 ovarian = tested on: OVCAR-5 ovarian
T-47D breast = tested on: T-47D breast
MDA-MB-435 = tested on: MDA-MB-435
HCC-2998 colon = tested on: HCC-2998 colon
U251 CNS = tested on: U251 CNS
HS 578T breast = tested on: HS 578T breast
OVCAR-3 ovarian = tested on: OVCAR-3 ovarian
HCT-15 colon = tested on: HCT-15 colon
EKVX NSCLC = tested on: EKVX NSCLC
SW-620 colon = tested on: SW-620 colon
SNB-19 CNS = tested on: SNB-19 CNS
OVCAR-8 ovarian = tested on: OVCAR-8 ovarian
UACC-62 melanoma = tested on: UACC-62 melanoma
NCI-H23 lung = tested on: NCI-H23 lung
HT29 colon = tested on: HT29 colon
HCT-116 colon = tested on: HCT-116 colon
TK-10 renal = tested on: TK-10 renal
M14 melanoma = tested on: M14 melanoma
RXF 393 renal = tested on: RXF 393 renal
HL-60(TB) leukemia = tested on: HL-60(TB) leukemia
SR leukemia = tested on: SR leukemia
CCRF-CEM leukemia = tested on: CCRF-CEM leukemia
K-562 leukemia = tested on: K-562 leukemia

Nc1sccc1S(=O)(=O)c1ccsc1N
TGI (KM12 colon): > 100 µM | TGI (NCI-H226 lung): > 100 µM | TGI (CAKI-1 renal): > 100 µM | TGI (IGROV1 ovarian): > 100 µM | TGI (HOP-92 NSCLC): > 100 µM | TGI (HOP-62 NSCLC): > 100 µM | TGI (SK-MEL-28 melanoma): > 100 µM | TGI (SK-OV-3 ovarian): > 100 µM | TGI (SF-268 CNS): > 100 µM | TGI (MDA-MB-231 breast): > 100 µM | TGI (BT-549 breast): > 100 µM | TGI (ACHN renal): > 100 µM | TGI (UACC-257 melanoma): > 100 µM | TGI (786-0 renal): > 100 µM | TGI (UO-31 renal): > 100 µM | TGI (A498 renal): > 100 µM | TGI (OVCAR-4 ovarian): > 100 µM | TGI (MCF7 breast): > 100 µM | TGI (MALME-3M melanoma): > 100 µM | TGI (NCI/ADR-RES ovarian): > 100 µM | TGI (RPMI-8226 leukemia): > 100 µM | TGI (SK-MEL-2 melanoma): > 100 µM | TGI (DU-145 prostate): > 100 µM | TGI (LOX IMVI melanoma): > 100 µM | TGI (SF-295 CNS): > 100 µM | TGI (SF-539 CNS): > 100 µM | TGI (SNB-75 CNS): > 100 µM | TGI (NCI-H522 lung): > 100 µM | TGI (SN12C renal): > 100 µM | TGI (SK-MEL-5 melanoma): > 100 µM | TGI (NCI-H460 lung): > 100 µM | TGI (MOLT-4 leukemia): > 100 µM | TGI (COLO 205 colon): > 100 µM | TGI (PC-3 prostate): > 100 µM | TGI (MDA-N): > 100 µM | TGI (A549 NSCLC): > 100 µM | TGI (OVCAR-5 ovarian): > 100 µM | TGI (T-47D breast): > 100 µM | TGI (MDA-MB-435): > 100 µM | TGI (HCC-2998 colon): > 100 µM | TGI (U251 CNS): > 100 µM | TGI (HS 578T breast): > 100 µM | TGI (OVCAR-3 ovarian): > 100 µM | TGI (HCT-15 colon): > 100 µM | TGI (EKVX NSCLC): > 100 µM | TGI (SW-620 colon): > 100 µM | TGI (SNB-19 CNS): > 100 µM | TGI (OVCAR-8 ovarian): > 100 µM | TGI (UACC-62 melanoma): > 100 µM | TGI (NCI-H23 lung): > 100 µM | TGI (HT29 colon): > 100 µM | TGI (HCT-116 colon): > 100 µM | TGI (TK-10 renal): > 100 µM | TGI (M14 melanoma): > 100 µM

CCN(CC)C(=O)C1=C(C)NC(C)=C(C(=O)N(CC)CC)C1
TGI (KM12 colon): > 100 µM | TGI (CAKI-1 renal): > 100 µM | TGI (IGROV1 ovarian): > 100 µM | TGI (HOP-92 NSCLC): > 100 µM | TGI (HOP-62 NSCLC): > 100 µM | TGI (SK-MEL-28 melanoma): > 100 µM | TGI (RXF 393 renal): > 100 µM | TGI (SK-OV-3 ovarian): > 100 µM | TGI (SF-268 CNS): > 100 µM | TGI (HL-60(TB) leukemia): > 100 µM | TGI (MDA-MB-231 breast): > 100 µM | TGI (ACHN renal): > 100 µM | TGI (UACC-257 melanoma): > 100 µM | TGI (786-0 renal): > 100 µM | TGI (UO-31 renal): > 100 µM | TGI (SR leukemia): > 100 µM | TGI (A498 renal): > 100 µM | TGI (OVCAR-4 ovarian): > 100 µM | TGI (MCF7 breast): > 100 µM | TGI (MALME-3M melanoma): > 100 µM | TGI (RPMI-8226 leukemia): > 100 µM | TGI (SK-MEL-2 melanoma): > 100 µM | TGI (DU-145 prostate): > 100 µM | TGI (LOX IMVI melanoma): > 100 µM | TGI (SF-295 CNS): > 100 µM | TGI (SF-539 CNS): > 100 µM | TGI (SNB-75 CNS): 93.4 µM | TGI (NCI-H522 lung): > 100 µM | TGI (SN12C renal): > 100 µM | TGI (SK-MEL-5 melanoma): > 100 µM | TGI (NCI-H460 lung): > 100 µM | TGI (MOLT-4 leukemia): > 100 µM | TGI (COLO 205 colon): > 100 µM | TGI (PC-3 prostate): > 100 µM | TGI (MDA-N): > 100 µM | TGI (A549 NSCLC): > 100 µM | TGI (OVCAR-5 ovarian): > 100 µM | TGI (T-47D breast): > 100 µM | TGI (MDA-MB-435): > 100 µM | TGI (HCC-2998 colon): > 100 µM | TGI (U251 CNS): > 100 µM | TGI (HS 578T breast): > 100 µM | TGI (OVCAR-3 ovarian): > 100 µM | TGI (HCT-15 colon): > 100 µM | TGI (EKVX NSCLC): > 100 µM | TGI (SW-620 colon): > 100 µM | TGI (CCRF-CEM leukemia): > 100 µM | TGI (SNB-19 CNS): > 100 µM | TGI (K-562 leukemia): > 100 µM | TGI (UACC-62 melanoma): > 100 µM | TGI (NCI-H23 lung): > 100 µM | TGI (HCT-116 colon): > 100 µM | TGI (TK-10 renal): > 100 µM | TGI (M14 melanoma): > 100 µM
